Source: EPA's ToxValDB 9.5

Tested on: Rattus norvegicus
Conditions: oral
[1] = subchronic, gavage, M, Sprague-Dawley, Relative Organ Weight: Liver increase
[2] = subchronic, gavage, M, Sprague-Dawley, Deaths + Clinical Observation: Salivation Abnormal resp. noise Irregular respiration Loose stool DiarrheaSoiled fur, nasal/urogenital region…

Q: For `CCCCC(CC)COC(=O)C1CC=CCC1C(=O)OCC(CC)CCCC` (stereo not drawn) [Bis(2-ethylhexyl) 4-cyclohexene-1,2-dicarboxylate], which NOEL (subchronic, duration: 42 days, gavage, M, CD(SD), Hematology: WBC decrease, LYMPH decrease, NEUT decrease, Large unstained cell decrease + Absolute Organ Weight: Kidney increase + Relative …) is on record?
A: 100 mg/kg-day

Q: For `CC1CC(CC2CCC(N)C(C)C2)CCC1N` (stereo not drawn) [Bis(4-amino-3-methylcyclohexyl)methane], which NOAEL (subchronic, duration: 90 days, gavage, M/F, Wistar, Deaths: None (There were dead animals due to the intubation error) + Clinical Observation: Deteriorated general state Discolored body region…) is on record?
A: 2.5 mg/kg-day

Q: `[Bi]` [Bismuth] was tested. Which NOEL (short-term, duration: 28 days, gavage, Crj:CD) did it give?
A: 1000 mg/kg-day

Q: `COc1cc(-c2ccc(N)c(OC)c2)ccc1N.Cl.Cl` [C.I. Disperse Black 6 dihydrochloride] was tested. Which NOEL (subchronic, duration: 13 weeks, drinking water, M/F, Fischer 344, Body Weight Changes: decrease + Water Consumption: decrease + Hematology: WBC decrease, Lympho decrease, Hct decrease, RBC decrease + Blood …) did it give?
A: < 170 mg/kg-day

Q: Which NOEL (subchronic, duration: 13 weeks, diet, M/F, Fischer 344, Deaths + Body Weight Changes: decrease + Histopathology: Kidneys-Calculi Urinary bladder a"Inflammation Urinary bladder a"Transitional …) does the source give for `Nc1ccc(N)c2c1C(=O)c1c(N)ccc(N)c1C2=O` [C.I. Disperse Blue 1] here?
A: 115 mg/kg-day

Q: For `[Cl-].[Cs+]` [Caesium chloride], which NOEL (subchronic, duration: 90 days, gavage, M/F, Sprague-Dawley, Deaths + Clinical Observation: Irritability Convulsion, preening Locomotor activity increase + Body Weight Changes: decrease + Food …) is on record?
A: < 10 mg/kg-day

Q: How did the NOEL (subchronic, duration: 13 weeks, diet, F, Fischer 344, Deaths + Clinical Observation: Ruffled fur AlopeciaAbnormal posture + Body Weight Changes: decrease + Hematology: RBC decrease, Plt decrease…) turn out when `COc1ccc2c3c1O[C@H]1[C@@H](O)C=C[C@H]4[C@@H](C2)N(C)CC[C@@]341` [Codeine] was run?
A: < 25 mg/kg-day

Q: What about the NOEL (subchronic, duration: 13 weeks, diet, M/F, Fischer 344, Deaths + Clinical Observation: Ruffled fur AlopeciaAbnormal posture + Body Weight Changes: decrease + Hematology: RBC decrease, Plt decrease…) of the same compound?
A: < 37.4 mg/kg-day

Q: With `O=c1ccc2ccccc2o1` [Coumarin] as the compound, how does the NOEL (subchronic, duration: 13 weeks, gavage, M/F, Fischer 344, Deaths + Body Weight Changes: decrease + Hematology: RBC increase + Blood Chemistry: Ch E decrease, Cl decrease, TP increase, Alb increase, …) read?
A: < 19 mg/kg-day

Q: How did the NOEL (short-term, duration: 28 days, gavage, M/F, Clinical Observation: Salivation + Blood Chemistry: GLUC decrease, TP increase, CRN decrease, BIL increase, T-CHO increase + Absolute Organ …) turn out when `CC(C)(O)C1CCCCC1` [Cyclohexanemethanol, .alpha.,.alpha.-dimethyl-] was run?
A: < 8 mg/kg-day

Q: For `O=C1c2ccccc2C(=O)C1c1ccc2ccccc2n1` [D & C Yellow 11], which NOEL (subchronic, diet, F, Fischer 344, Body Weight Changes: decrease + Absolute Organ Weight: Liver increase, Lung increase + Relative Organ Weight: Liver increase, Lung increase…) is on record?
A: < 37 mg/kg-day

Q: What about the NOEL (subchronic, diet, M/F, Fischer 344, Body Weight Changes: decrease + Absolute Organ Weight: Liver increase, Lung increase + Relative Organ Weight: Liver increase, Lung increase…) of the same compound?
A: < 48 mg/kg-day

Q: `CC(Cl)(Cl)C(=O)[O-].[Na+]` [Dalapon-sodium] was tested. Which NOEL (subchronic, gavage, M, Sprague-Dawley, Blood Chemistry: TP decrease, BUN increase) did it give?
A: 300 mg/kg-day

Q: For `c1ccc2c(c1)sc1ccccc12` [Dibenzothiophene], which NOEL (short-term, duration: 28 days, gavage, M/F, Sprague-Dawley, Clinical Observation: Salivation Soiled perigenital fur + Functional Observational Battery: Locomotor activity decrease + Body Weight …) is on record?
A: 3 mg/kg-day

Q: Which NOEL (subchronic, gavage, M/F, Crj:CD, Blood Chemistry: ALT increase, Ca increase, Alb increase, TP increase + Absolute Organ Weight: Liver increase + Relative Organ Weight: Liver…) does the source give for `COc1cc(COC(=O)CCCCCCC(C)C)ccc1O` [Dihydrocapsiate] here?
A: 300 mg/kg-day

Q: `[CH3][Sn]([CH3])([Cl])[Cl]` [Dimethyltin dichloride] was tested. Which NOAEL (subchronic, duration: 90 days, drinking water, M/F, Sprague-Dawley, Deaths + Clinical Observation: Died or sacrificed with poor condition (All remaining animals were sacrificed by week 6) Dehydration …) did it give?
A: < 3.8 mg/kg-day

Q: Which NOAEL (subchronic, duration: 90 days, diet, M/F, Wistar, Deaths + Body Weight Changes: Mean body weight decrease + Food Consumption: decrease + Urinalysis: SG decrease, GOT increase + Hematology: …) does the source give for `CCCCCCC[CH2][Sn]([CH2]CCCCCCC)([S]CC(=O)OCC(CC)CCCC)[S]CC(=O)OCC(CC)CCCC` (stereo not drawn) [Dioctyltinbis(2-ethylhexyl mercaptoacetate)] here?
A: 0.96 mg/kg-day

Q: How did the NOAEL (short-term, duration: 28 days, gavage, M/F, Sprague-Dawley, Clinical Observation: Tentative salivation + Relative Organ Weight: Liver increase + Histopathology: Liver-Centrilobular hypertrophy) turn out when `COCC(C)OCC(C)O` (stereo not drawn) [Dipropylene glycol monomethyl ether] was run?
A: 200 mg/kg-day

Q: `C=CC(=O)OCC` [Ethyl acrylate] was tested. Which NOAEL (subchronic, duration: 90 days, gavage, M, Fischer 344, Necropsy: Small intestine: Reddening, duodenal mucosa Stomach: Prominent blood vessel, cardiac region) did it give?
A: 55 mg/kg-day

Q: How did the NOEL (chronic, duration: 91 days, gavage, M/F, Wistar, Deaths + Clinical Observation: Piloerection + Body Weight Changes: Body weight decrease, Body weight gain decrease + Food Consumption: …) turn out when `CN1CCN(c2c(F)cc3c(=O)c(C(=O)O)cn(CCF)c3c2F)CC1` [Fleroxacin] was run?
A: 45 mg/kg-day

Q: `COc1ccc(C[C@@H](C)NC[C@H](O)c2ccc(O)c(NC=O)c2)cc1.COc1ccc(C[C@@H](C)NC[C@H](O)c2ccc(O)c(NC=O)c2)cc1.O=C(O)/C=C/C(=O)O` [Formoterol hemifumarate] was tested. Which NOEL (subchronic, duration: 35 days, gavage, F, Sprague-Dawley, Deaths + Clinical Observation: Tachycardia Tachypnea Salivation + Body Weight Changes: Body weight gain decrease + Blood Chemistry: GLUC …) did it give?
A: 0.3 mg/kg-day

Q: And the NOEL (subchronic, duration: 35 days, gavage, M, Sprague-Dawley, Deaths + Clinical Observation: Tachycardia Tachypnea Salivation + Body Weight Changes: Body weight gain decrease + Blood Chemistry: GLUC …)?
A: 0.03 mg/kg-day

Q: `O=[N+]([O-])c1ccc(NCCO)c(OCCO)c1` [HC Yellow 4] was tested. Which NOEL (subchronic, duration: 13 weeks, diet, M/F, Fischer 344, Body Weight Changes: decrease + Relative Organ Weight: Right kidney increase, Liver increase, Lungs increase, Thymus increase, Testis …) did it give?
A: < 240 mg/kg-day

Q: How did the NOEL (subchronic, gavage, M, Sprague-Dawley, Hematology: RBC decrease, Hgb decrease, Hct decrease, MCHC decrease, MCV increase, MCH increase, R RET increase, R + Absolute Organ Weight…) turn out when `CC(C)(C)NN.Cl` [Hydrazine, (1,1-dimethylethyl)-, monohydrochloride] was run?
A: 4 mg/kg-day

Q: What does the source list for `C=CC(=O)OCCCCCCCCCCCC` [Lauryl acrylate]?
A: NOAEL [1]: 1000 mg/kg-day; NOEL [1]: 300 mg/kg-day

Q: How did the NOEL (chronic, duration: 91 days, gavage, M/F, Sprague-Dawley, Deaths + Clinical Observation: Prone position(dead animals) Hypothermia(dead animals) Lid closure(dead animals) Clonic convulsion(dead …) turn out when `CCn1cc(C(=O)O)c(=O)c2cc(F)c(N3CCNC(C)C3)c(F)c21.Cl` (stereo not drawn) [Lomefloxacin hydrochloride] was run?
A: 30 mg/kg-day

Q: For `N#CSCSC#N` [Methylene bis(thiocyanate)], which NOEL (subchronic, gavage, F, Fischer 344, Deaths + Clinical Observation: Abnormal respiratory sounds Reddish tear Hunched posture Dyspnea + Hematology: Hct decrease, Hgb decrease, …) is on record?
A: 2 mg/kg-day

Q: What about the NOEL (subchronic, gavage, M, Fischer 344, Deaths + Clinical Observation: Abnormal respiratory sounds Reddish tear Hunched posture Dyspnea + Hematology: Hct decrease, Hgb decrease, …) of the same compound?
A: 1 mg/kg-day

Q: For `COC(=O)C(c1ccccc1)C1CCCCN1.Cl` (stereo not drawn) [Methylphenidate hydrochloride], which NOEL (subchronic, duration: 13 weeks, diet, F, Fischer 344, Body Weight Changes: decrease + Food Consumption: decrease + Absolute Organ Weight: Brain increase, Liver increase + Relative Organ Weight: …) is on record?
A: 18 mg/kg-day

Q: And the NOEL (subchronic, duration: 13 weeks, diet, M/F, Fischer 344, Body Weight Changes: decrease + Food Consumption: decrease + Absolute Organ Weight: Brain increase, Liver increase + Relative Organ Weight: …)?
A: 24 mg/kg-day

Q: What does the source list for `O=c1c(O)c(-c2ccc(O)cc2O)oc2cc(O)cc(O)c12` [Morin]?
A: NOEL (subchronic, diet, F, Fischer 344, Body Weight Changes: decrease + Hematology: WBC increase + Blood Chemistry: BUN increase , TP decrease, TG decrease , Alb increase , Cho …): 356 mg/kg-day; NOEL (subchronic, diet, M/F, Fischer 344, Body Weight Changes: decrease + Hematology: WBC increase + Blood Chemistry: BUN increase , TP decrease, TG decrease , Alb increase , Cho …): 0.625%

Q: What does the source list for `O=C1C=CC(=O)N1c1cccc(N2C(=O)C=CC2=O)c1` [N,N'-1,3-Phenylenedimaleimide]?
A: NOAEL [2]: 15 mg/kg-day; NOEL [2]: < 15 mg/kg-day

Q: With `CO[Si](CCCNCCN)(OC)OC` [N-[3-(Trimethoxysilyl)propyl]ethane-1,2-diamine] as the compound, how does the NOAEL (short-term, duration: 28 days, gavage, M, Sprague-Dawley, Clinical Observation: Perioral soiling Increased nasal sounds Labored respiration Soft vocalization) read?
A: 500 mg/kg-day

Q: For `O=c1[nH]c2ccccc2n1CCCN1CCN(C(c2ccccc2)c2ccccc2)CC1` [Oxatomide], which NOEL (subchronic, duration: 30 days, gavage, M/F, Wistar, Deaths + Clinical Observation: Tremor HypersensitivityPiloerection + Body Weight Changes: Body weight gain decrease + Food Consumption: …) is on record?
A: 40 mg/kg-day

Q: How did the NOEL (short-term, duration: 28 days, gavage, M/F, Sprague-Dawley, Deaths + Clinical Observation: Locomotor activity decrease, Respiration rate increase + Body Weight Changes: decrease + Food Consumption: …) turn out when `Cl.O=C(O)/C=C/c1ccc(Cn2ccnc2)cc1` [Ozagrel hydrochloride] was run?
A: 625 mg/kg-day

Q: For `CC(C)(Sc1cc(C(C)(C)C)c(O)c(C(C)(C)C)c1)Sc1cc(C(C)(C)C)c(O)c(C(C)(C)C)c1` [Probucol], which NOAEL (chronic, duration: 91 days, gavage, Sprague-Dawley) is on record?
A: > 2250 mg/kg-day

Q: Which NOAEL (subchronic, duration: 90 days, gavage, M/F, CD, Clinical Observation: Salivation Chylous or dark red-brown urine + Absolute Organ Weight: Liver increase + Relative Organ Weight: Liver …) does the source give for `O=C([O-])C1=Cc2sc(Cn3ccnc3)cc2CC1.[Na+]` [RS 5186] here?
A: 30 mg/kg-day

Q: Which NOEL (subchronic, duration: 35 days, gavage, M/F, Sprague-Dawley, Deaths + Clinical Observation: Locomotor activity decrease, Increased respiration rate Deep respiration Prone, lateral, or supine position …) does the source give for `C[C@@H](NCCc1ccc(O)cc1)[C@@H](O)c1ccc(O)cc1.Cl` [Ritodrine hydrochloride] here?
A: 32 mg/kg-day

Q: What does the source list for `O=[Se](=O)([O-])[O-].[Na+].[Na+]` [Sodium selenate]?
A: NOEL (subchronic, drinking water, F, Fischer 344, Deaths + Body Weight Changes: decrease + Hematology: Hct increase, Hgb increase, RBC increase + Blood Chemistry: BUN increase ALT increase, …): 0.31 mg/kg-day; NOEL (subchronic, drinking water, M/F, Fischer 344, Deaths + Body Weight Changes: decrease + Hematology: Hct increase, Hgb increase, RBC increase + Blood Chemistry: BUN increase ALT increase, …): 0.57 mg/kg-day

Q: With `O=C1CCC(=O)O1` [Succinic anhydride] as the compound, how does the NOEL (subchronic, duration: 13 weeks, gavage, M/F, Fischer 344, Deaths + Clinical Observation: Lethargy Distended abdomens + Body Weight Changes: decrease + Absolute Organ Weight: Liver increase + …) read?
A: 50 mg/kg-day

Q: With `Nc1ccc(S(N)(=O)=O)cc1` [Sulfanilamide] as the compound, how does the NOEL (short-term, duration: 28 days, gavage, M/F, Sprague-Dawley, Clinical Observation: Salivation + Functional Observational Battery: Auditory response decrease, Disappearance, aerial righting reflex …) read?
A: 50 mg/kg-day

Q: For `O=C(O)c1cc(N=Nc2ccc(S(=O)(=O)Nc3ccccn3)cc2)ccc1O` [Sulfasalazine], which NOEL (subchronic, duration: 13 weeks, gavage, M/F, Fischer 344, Body Weight Changes: decrease + Blood Chemistry: TSH increase T3 decrease T4 decrease + Absolute Organ Weight: Right kidney increase + …) is on record?
A: < 84 mg/kg-day

Q: How did the NOEL (subchronic, duration: 13 weeks, gavage, M/F, Fischer 344, Deaths: Administration groups for 13 weeks(1/10 )(2/10 )(6/10 /10 ) + Clinical Observation: Convulsion Aggressive behavior: Dose is unknown …) turn out when `CCCCCc1cc(O)c2c(c1)OC(C)(C)[C@@H]1CCC(C)=C[C@@H]21` [Tetrahydrocannabinol] was run?
A: < 5 mg/kg-day

Q: Which NOEL (subchronic, gavage, M, Sprague-Dawley, Functional Observational Battery: Tonic convulsion Hypersensitive reaction in touch response and tail pinch response + Body Weight Changes: …) does the source give for `NNC(N)=S` [Thiosemicarbazide] here?
A: 0.4 mg/kg-day
